The experiment concerns the target T1, Methylated-DNA--protein-cysteine methyltransferase (Homo sapiens, UniProt P16455).
T1 sequence (P16455 whole entry): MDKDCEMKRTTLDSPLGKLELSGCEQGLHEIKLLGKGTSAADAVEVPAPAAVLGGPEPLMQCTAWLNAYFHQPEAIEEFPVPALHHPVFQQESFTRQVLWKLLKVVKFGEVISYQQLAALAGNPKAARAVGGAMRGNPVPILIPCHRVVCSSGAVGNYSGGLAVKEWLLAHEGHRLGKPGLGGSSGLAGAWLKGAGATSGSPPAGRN
In words: In vitro inhibition of MGMT using cell free extracts from HeLa S3 cells.

The values that follow come from ChEMBL document CHEMBL1134281, “Monosaccharide-linked inhibitors of O(6)-methylguanine-DNA methyltransferase (MGMT): synthesis, molecular modeling, and structure-activity relationships” (J Med Chem, 2001).

For `Nc1nc(OCc2ccccc2)c2[nH]nnc2n1`, it took 38 nM to reach half-maximal inhibition (IC50).
For `Nc1nc(OCc2cc(Br)cs2)c2[nH]cnc2n1` [LOMEGUATRIB], the IC50 (usually the concentration that gives 50% inhibition) was found to be 9 nM.
